These results are taken from ChEMBL document CHEMBL1136383, “New fibrinolytic agents: benzothiophene derivatives as inhibitors of the t-PA-PAI-1 complex formation” (Bioorg Med Chem Lett, 2003).

The assay deals with Plasminogen activator inhibitor 1 (Homo sapiens, UniProt P05121). The assay is described as follows: Inhibitory activity against plasminogen activator inhibitor 1 (PAI-1) was evaluated by inhibition of tissue plasminogen activator/PAI-1 complex formation in t-PA-induced fibrin clot lysis assay.
Plasminogen activator inhibitor 1, sequence (P05121 whole entry): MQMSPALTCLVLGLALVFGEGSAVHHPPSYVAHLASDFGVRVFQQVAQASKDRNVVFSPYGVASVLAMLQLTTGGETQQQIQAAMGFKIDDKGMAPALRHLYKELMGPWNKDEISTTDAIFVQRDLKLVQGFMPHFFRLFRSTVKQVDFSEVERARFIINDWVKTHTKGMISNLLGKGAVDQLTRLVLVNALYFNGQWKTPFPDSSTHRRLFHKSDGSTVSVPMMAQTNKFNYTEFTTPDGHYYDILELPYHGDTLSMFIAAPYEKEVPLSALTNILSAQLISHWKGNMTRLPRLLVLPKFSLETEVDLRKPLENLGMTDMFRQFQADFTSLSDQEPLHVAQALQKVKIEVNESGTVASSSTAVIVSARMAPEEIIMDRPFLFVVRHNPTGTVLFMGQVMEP
Consider `COc1ccc(-c2ccc(COc3cc4sc(/C=C(/C(=O)O)c5ccncc5)c(Oc5ccc(Cl)cc5)c4cc3OCc3ccc(-c4ccc(OC)cc4)cc3)cc2)cc1`, for which the IC50 (as a rule, the concentration needed to halve the response being measured) stood at 0.14 µM.
With `O=C(O)/C(=C/c1sc2cc(OCc3ccc(Sc4ccccc4)cc3)c(OCc3ccc(Sc4ccccc4)cc3)cc2c1Oc1ccc(Cl)cc1)c1ccncc1`, the IC50 was 0.039 µM.
For `CN(C)CCSc1ccc(/C=c2\[nH]c(=O)/c(=C/c3ccccc3)[nH]c2=O)cc1`, the IC50 came out at 51 µM.
Molecule `O=C(O)/C(=C/c1sc2cc(OCc3ccc(-c4ccccc4)cc3)c(OCc3ccc(-c4ccccc4)cc3)cc2c1Oc1cccc(F)c1)c1ccncc1` showed an IC50 of 0.24 µM.
Regarding `Cc1cc(Oc2c(/C=C(/C(=O)O)c3ccncc3)sc3cc(OCc4ccc(-c5ccccc5)cc4)c(OCc4ccc(-c5ccccc5)cc4)cc23)cc(C)c1Cl`, half-maximal inhibition (IC50) required 1.09 µM.
The result for `Cc1ccc(Oc2c(/C=C(/C(=O)O)c3ccncc3)sc3cc(OCc4ccc(-c5ccccc5)cc4)c(OCc4ccc(-c5ccccc5)cc4)cc23)cn1` reads 2.48 µM; that for `COc1ccc(/C=c2\[nH]c(=O)/c(=C/c3ccccc3)[nH]c2=O)cc1`, 59.4 µM.
`O=C(O)/C(=C/c1sc2cc(OCc3ccc(-c4ccccc4)cc3)c(OCc3ccc(-c4ccccc4)cc3)cc2c1Oc1cccnc1)c1ccncc1` came in with a half-maximal inhibitory concentration (IC50) of 2.4 µM.
For `O=C(O)/C(=C/c1sc2cc(OCc3ccc(-c4ccccc4)cc3)c(OCc3ccc(-c4ccccc4)cc3)cc2c1Oc1ccc(Cl)c(F)c1)c1ccncc1`, 2.28 µM corresponded to half-maximal inhibition (IC50).
Take `O=C(O)/C(=C/c1sc2cc(OCc3ccccc3-c3ccccc3)c(OCc3ccccc3-c3ccccc3)cc2c1Oc1ccc(Cl)cc1)c1ccncc1`: the IC50 was determined as 10.8 µM.
With `O=C(O)/C(=C/c1sc2cc(OCc3ccc(-c4ccccc4)cc3)c(OCc3ccc(-c4ccccc4)cc3)cc2c1Oc1ccc(F)c(F)c1)c1ccncc1`, the IC50 came to 0.59 µM.
For `O=C(O)/C(=C/c1sc2cc(OCc3ccc(-c4ccccc4)cc3)c(OCc3ccc(-c4ccccc4)cc3)cc2c1Oc1ccc2ncccc2c1)c1ccncc1`, half-maximal inhibition (IC50) was put at 6.06 µM.
Take `O=C(O)/C(=C/c1sc2cc(OCc3ccc(Cc4ccccc4)cc3)c(OCc3ccc(Cc4ccccc4)cc3)cc2c1Oc1ccc(Cl)cc1)c1ccncc1`: inhibition was half-maximal at 0.27 µM (IC50).
The result for `O=C(O)/C(=C/c1sc2cc(OCc3ccc(-c4ccccc4)cc3)c(OCc3ccc(-c4ccccc4)cc3)cc2c1Oc1ccc(Oc2ccncc2)cc1)c1ccncc1` reads 10.7 µM; that for `Cc1cc(Oc2c(/C=C(/C(=O)O)c3ccncc3)sc3cc(OCc4ccc(-c5ccccc5)cc4)c(OCc4ccc(-c5ccccc5)cc4)cc23)ccc1Cl`, 0.48 µM; that for `CN(C)CCSc1ccc(/C=c2\[nH]c(=O)/c(=C/c3ccccc3)[nH]c2=O)s1`, 106 µM.
In the case of `O=C(O)/C(=C/c1sc2cc(OCc3ccc(Oc4ccccc4)cc3)c(OCc3ccc(Oc4ccccc4)cc3)cc2c1Oc1ccc(Cl)cc1)c1ccncc1`, it took 0.1 µM to reach half-maximal inhibition (IC50).
For the molecule `O=C(O)/C(=C/c1sc2cc(OCc3ccc(S(=O)(=O)c4ccccc4)cc3)c(OCc3ccc(S(=O)(=O)c4ccccc4)cc3)cc2c1Oc1ccc(Cl)cc1)c1ccncc1`, the IC50 was found to be 0.77 µM.
As to `O=C(O)/C(=C/c1sc2cc(OCc3ccc(-c4ccccc4)cc3)c(OCc3ccc(-c4ccccc4)cc3)cc2c1Oc1ccccc1)c1ccncc1`, it took 0.1 µM to reach half-maximal inhibition (IC50).
In turn, `O=C(O)/C(=C/c1sc2cc(OCc3ccc(-c4ccccc4)cc3)c(OCc3ccc(-c4ccccc4)cc3)cc2c1Oc1ccc(Cl)nc1)c1ccncc1` came in with an IC50 of 2.07 µM.
The molecule `O=C(O)/C(=C/c1sc2cc(OCc3ccc(-c4ccccc4)cc3)c(OCc3ccc(-c4ccccc4)cc3)cc2c1Oc1ccc(-n2ccnc2)cc1)c1ccncc1` had a 50% inhibitory concentration (IC50) of 2.91 µM.
As for `O=C(O)/C(=C/c1sc2cc(OCc3cccc(-c4ccccc4)c3)c(OCc3cccc(-c4ccccc4)c3)cc2c1Oc1ccc(Cl)cc1)c1ccncc1`, the midpoint of inhibition, the IC50, lay at 0.22 µM.
The result for `COC(=O)/C(=C/c1sc2cc(OCc3ccccc3)c(OCc3ccccc3)cc2c1Oc1ccc(Cl)cc1)c1ccncc1` reads 0.47 µM.
